Reference: patent US12274681B2, “Compositions and methods for reducing skin fat” (Purdue Research Foundation, priority 2016, dated 2025)

Legend:
ACAT1 [1] = experiment: Lentivirus-mediated ACAT1 knockdown in adipocytes (Oil Red O, real-time PCR); assay type: cell-based, mouse
Method: The direct role of ACAT1 on synthesis of fatty acids and TGs in adipocytes by lentivirus-mediated ACAT1 knockdown using its specific shRNA was tested.

ACAT2 [2] = experiment: ACAT2 knockdown in adipocytes (Oil Red O, real-time PCR); assay type: cell-based, mouse
[3] = test system: high fat diet-fed C57BL/6J obese and diabetic mice; experiment: High fat diet-induced obese and diabetic mouse model; assay type: in vivo; conditions: for anti-diabetes treatment / anti-obesity treatment in a mouse model of obesity: summary statement
3T3-L1 adipocytes = experiment: Proteomic analysis of adipocytes by LC MS/MS; assay type: cell-based, Mus musculus; conditions: 10 μM
Method: 3T3-L1 preadipocytes were induced to differentiate into mature adipocytes with the same culture condition as described elsewhere. […] Avasimibe or DMSO was replaced freshly every 48 h. Each condition was cultured in triplicate. On day 6, adipocytes were washed with 1×PBS and scraped off the culture dishes. Adipocyte cell pellets were collected after centrifugation and subsequently digested with trypsin (Sigma-Aldrich, St. Louis MO, USA) at the Ratio of 1:50 (μg/μg) Trypsin to Protein. The tryptic peptides after trypsin digestion were separated on a nano LC system (1100 Series LC, Agilent Technologies, Santa Clara, CA) as described previously (D'Aquila, et al. 2015). Briefly, peptides were concentrated with Agilent 300SB-C18 enrichment column and separated with C18 reversed phase ZORBAX 300SB-C18 column. High resolution hybrid ion trap mass spectrometer LTQ-Orbitrap LX (Thermo Fisher Scientific, Waltham MA, USA) was employed to identify the peptides in the data-dependent positive acquisition mode. These experiments were done in Bindley Bioscience Center. We used the MaxQuant computational proteomics platform version 1.5.3.17 (Cox and Mann, 2008) to analyze the results from LC MS/MS analysis. The Mus musculus (24754 entries) sequence from UNIPROT retrieved on Sep. 1, 2015 and a common contaminants database were used as our reference databases. MaxQuant was set with parameters as follows: minimum peptides length was set to seven amino acids, and “Match between runs” interval was set to one minute; The FASTA databases were randomized and 1% of protein false discovery rate was allowed; With trypsin digestion, two missed cleavages were accepted; Three modifications per peptide were allowed, including one fixed modification as “Iodoethanol” and variable modifications as “Oxidation (M)” and “Acetyl (Protein N-term)”; Initial precursor was set to 0.07 and fragment mass tolerance set to 0.02 Da; Data were analyzed with “Label-free quantification” (LFQ) checked. The MaxQuant results were used in in-house script to remove all the common contaminant proteins and to calculate the average LFQ intensity values for the biological replicates and log transform [log2(x)]. The missing values were left blank unless indicated. A two tailed student t-test was performed on the LFQ intensity.

SREBP1 = experiment: Western blot of SREBP1 in adipocytes; assay type: cell-based
Method: Because SREBP1 plays a key role in de novo fatty acids and TG synthesis and the data in FIG. 6 show a potential inhibitory role of avasimibe in suppression of SREBP1-downstream genes involved in fatty acid and TG synthesis, the ability of avasimibe treatment to alter SREBP1 protein expression and de novo fatty acid synthesis in adipocytes was tested.

ACAT2 [4] = biological target: ACAT2 (Homo sapiens, UniProt O75908); conditions: cited from earlier work
[5] = test system: high-fat diet-induced obesity mouse model; experiment: Pair-feeding study in high-fat diet-induced obesity mouse model; assay type: in vivo, mice
Description: To do this, mice were pair-fed with the amount of food consumed by avasimibe-administrated mice for 8 days.

[6] = test system: murine 3T3-L1 preadipocytes; experiment: Lipid accumulation in differentiating adipocytes, Oil Red O staining and spectrometric quantification; assay type: cell-based
Method: Avasimibe solution was prepared by dissolving in dimethyl sulfoxide (DMSO). At day 6, preadipocytes and avasimibe-treated differentiated adipocytes were subjected to Oil Red 0 staining to visualize accumulated intracellular lipids. Oil Red 0 stained lipids were then extracted for spectrometric quantification of lipids. Intracellular lipids were decreased in a dose-dependent manner by up to 60% (FIG. 3A and FIG. 3B).

adipocytes [7] = experiment: De novo fatty acid synthesis, glucose-d7 with stimulated Raman scattering (SRS) microscopy; assay type: cell-based; conditions: SRS imaging
Description: Using deuterium labeled glucose-d7, the effect of avasimibe on de novo fatty acid synthesis in adipocytes treated with or without avasimibe was examined. Glucose-d7 incorporated fatty acids were visualized by stimulated Raman scattering (SRS) microscopy.

[8] = cited from earlier work
mature adipocytes = experiment: Lipid accumulation by Coherent Anti-Stokes Raman Scattering (CARS) microscopy; assay type: cell-based, murine
ACAT = experiment: 25-NBD cholesterol-based ACAT assay in adipocytes; assay type: cell-based
Description: (§1) Previous studies reported an adipogenesis-dependent increase in cholesterol accumulation in adipocytes. Similarly, adipogenesis was associated with elevated level free cholesterol with little change in CE level.

adipocytes [9] = experiment: Cholesterol and cholesterol ester accumulation in adipocytes during adipogenesis; assay type: cell-based
Description: as §1

[10] = mouse, in vivo, ip, 20 mg/kg
Description: Tissue- and isoform-specific regulation of ACATs has been proposed to be therapeutic strategy for cholesterol dysregulated diseases, such as atherosclerosis. However, the therapeutic role of ACATs in obesity has never been explored.

ACAT1 [11] = biological target: T1, ACAT1 (Homo sapiens, UniProt P35610); conditions: cited from earlier work
T1 sequence (P35610 1-550): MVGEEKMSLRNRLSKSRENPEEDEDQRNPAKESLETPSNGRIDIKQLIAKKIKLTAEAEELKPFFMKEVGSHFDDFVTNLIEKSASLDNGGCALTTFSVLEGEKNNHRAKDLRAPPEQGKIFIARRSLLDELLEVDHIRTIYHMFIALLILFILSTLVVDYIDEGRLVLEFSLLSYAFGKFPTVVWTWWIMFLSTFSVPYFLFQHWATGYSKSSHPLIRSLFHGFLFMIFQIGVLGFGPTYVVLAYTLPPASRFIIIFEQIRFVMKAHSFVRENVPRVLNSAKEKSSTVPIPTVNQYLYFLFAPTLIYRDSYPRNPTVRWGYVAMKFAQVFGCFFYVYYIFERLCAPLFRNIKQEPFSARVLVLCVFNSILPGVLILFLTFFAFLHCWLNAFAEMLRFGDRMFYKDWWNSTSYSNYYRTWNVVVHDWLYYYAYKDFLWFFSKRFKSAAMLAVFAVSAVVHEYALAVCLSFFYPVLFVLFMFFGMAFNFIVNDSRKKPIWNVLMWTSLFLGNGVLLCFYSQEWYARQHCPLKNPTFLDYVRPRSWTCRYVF

[12] = test system: differentiated 3T3-L1 preadipocytes; experiment: Real-time PCR of lipid synthesis and cholesterol uptake genes in adipocytes; assay type: cell-based, murine
Method: To characterize the effect of avasimibe treatment on mRNA levels of genes involved in lipid metabolism and adipocyte function, differentiated 3T3-L1 preadipocytes in the presence or absence of avasimibe (20 μM) for 6 days were subjected to real-time PCR assay for the analysis of expression of genes involved in synthesis of fatty acids and TGs such as PPARγ, sterol regulatory element binding protein 1c (SREBP1c), MGAT1, DGAT2, FAS and SCD-1.
as §1

cytochrome P450 (CYP450) = conditions: Sahi, et al. 2004; cited from earlier work
[13] = daily i.p. 20 mg/kg, about 2-week

Sequence of ACAT2 (Homo sapiens, UniProt O75908) (O75908 whole entry): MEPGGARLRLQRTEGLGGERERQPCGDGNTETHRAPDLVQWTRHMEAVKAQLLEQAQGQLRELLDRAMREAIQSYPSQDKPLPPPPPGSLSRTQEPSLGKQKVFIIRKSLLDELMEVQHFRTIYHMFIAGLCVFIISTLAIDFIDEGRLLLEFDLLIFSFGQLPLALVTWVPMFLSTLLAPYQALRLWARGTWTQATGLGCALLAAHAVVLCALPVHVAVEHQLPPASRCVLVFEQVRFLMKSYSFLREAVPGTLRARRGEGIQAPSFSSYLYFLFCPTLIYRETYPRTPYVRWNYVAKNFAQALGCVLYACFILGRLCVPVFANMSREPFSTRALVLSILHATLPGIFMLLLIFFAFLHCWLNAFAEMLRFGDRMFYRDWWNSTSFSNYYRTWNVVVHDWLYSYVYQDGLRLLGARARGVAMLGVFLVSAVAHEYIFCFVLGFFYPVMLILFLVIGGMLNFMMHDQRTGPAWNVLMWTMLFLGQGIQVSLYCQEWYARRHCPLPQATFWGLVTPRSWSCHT

Compound: ACAT1 shRNA: mouse ACAT1 shRNA sequence (SEQ ID NO:5), lentivirus-mediated ACAT1 knockdown (CCGGCCAACCAGAGACUAAACAUAUCUCGAGAUAUGUUUAGUCUCUGGUUGGUUUUUUG; listed as Mus musculus)
- suppression of lipid accumulation vs control ShRNA adipocytes (Oil Red O) (ACAT1 [1]; ACAT1 knockdown): up to 40%
- mRNA levels of genes involved in lipid synthesis (ACAT1 [1]; ACAT1 knockdown, real-time PCR): marked decrease
- ACAT2 expression level (ACAT1 [1]; ACAT1 shRNA): no influence

Compound: ACAT2 shRNA: mouse ACAT2 shRNA sequence (SEQ ID NO:6), ACAT2 knockdown (CCGGUGCGGUGGUUCAUGAGUAUAUCUCGAGAUAUACUCAUGAACCACCGCAUUUUUUG; listed as Mus musculus)
- mRNA levels of genes involved in TG synthesis (ACAT2 [2]): dramatic reduction
- suppression of lipid accumulation vs control ShRNA adipocytes (Oil Red O) (ACAT2 [2]): up to 55%

Compound: CC(C)c1cc(C(C)C)c(CC(=O)NS(=O)(=O)Oc2c(C(C)C)cccc2C(C)C)c(C(C)C)c1 [avasimibe]
- HOMA-IR values ([3]; 2-week administration): improved
- blood glucose ([3]; 2-week administration): marked reduction
- glucose tolerance ([3]; 2-week administration): improved glucose tolerance
- insulin levels ([3]; 2-week administration): marked reduction
- decrease in food intake ([3]; daily i.p. 20 mg/kg): approximately 50%
- energy expenditure ([3]; daily i.p. 20 mg/kg): reduced energy expenditure
- reduction or suppression in total body weight gain ([3]; daily i.p. 20 mg/kg body weight, about 2-week): about 25%
- white adipose tissue (inguinal, epididymal, retroperitoneal) weight [3, 13]: significant loss
- whole body fat mass [3, 13]: significant loss
- circulating leptin level ([3]; mouse, in vivo): markedly suppressed
- serum CE ([3]; mouse, in vivo): decrease
- serum TG ([3]; mouse, in vivo): decrease
- serum free cholesterol ([3]; mouse, in vivo): decrease
- anti-diabetes treatment [3]: highly effective
- anti-obesity treatment in a mouse model of obesity [3]: highly effective
- respiratory exchange ratio ([3]; vs control mice): reduced respiratory exchange ratio
- Acyl-CoA dehydrogenase protein level reduction (3T3-L1 adipocytes): 56%
- Acyl-CoA synthetase long-chain family member 1 protein level reduction (3T3-L1 adipocytes): 86%
- FAS protein level (3T3-L1 adipocytes): only identified in the control group
- acetyl-CoA acyltransferase 1 protein level reduction (3T3-L1 adipocytes): 61%
- adiponectin protein level reduction (3T3-L1 adipocytes): 84%
- carnitine O-acetyltransferase protein level (3T3-L1 adipocytes): only identified in the control group
- cytochrome B5 Reductase 3 and superoxide dismutase 1 protein levels (3T3-L1 adipocytes): not altered significantly
- cytochrome B5 Type A protein level reduction (3T3-L1 adipocytes): 67%
- enoyl CoA hydratase short chain 1 protein level reduction (3T3-L1 adipocytes): 64%
- fatty acid binding protein 4 protein level reduction (3T3-L1 adipocytes): 64%
- hydroxyacyl-CoA dehydrogenase protein level reduction (3T3-L1 adipocytes): 64%
- hydroxysteroid (17-13) dehydrogenase 4 protein level reduction (3T3-L1 adipocytes): 38%
- sterol carrier protein 2 downregulation (3T3-L1 adipocytes): 36%
- level of 125 kDa inactive precursor form of SREBP1 (SREBP1): elevated levels
- IC50 (ACAT2 [4]): 2500 nM
- blood glucose of pair-fed group relative to avasimibe-treated mice ([5]; 8 days): didn't reach to the level found from avasimibe-treated mice
- fecal energy content ([5]; 8 days): little change
- fecal excretion and fecal energy excretion ([5]; figure legend FIG. 23C, 23D): suppressed
- decrease of intracellular lipids (Oil Red O) ([6]; avasimibe 0, 1, 5, and 20 μM for 6 days, dose-dependent): up to 60%
- LD accumulation and glucose-d7 signal in LDs (de novo fatty acid synthesis) (adipocytes [7]): reduced level
- safety when administered to rats, dogs, and humans ([8]; in vivo): generally considered safe
- hypercholesterolemia ([8]; oral): effectively lowered
- effect on body weight, food intake and insulin resistance ([8]; orally administrated): no effect
- lipid accumulation by CARS microscopy (mature adipocytes): inhibited lipid accumulation was confirmed
- ACAT activity (fluorescence-labeled CE accumulation) (ACAT): inhibited the ACAT activity
- CE accumulation in adipocytes (adipocytes [9]): complete inhibition
- cholesterol level in adipocytes (adipocytes [9]): significantly reduced level
- liver toxicity by alanine transaminase (ALT) assay [10]: no noticeable liver toxicity
- IC50 (ACAT1 [11]): 10000 nM
- mRNA levels of genes involved in lipid synthesis (PPARγ, SREBP1c, MGAT1, DGAT2, FAS, SCD-1) ([12]; 20 μM for 6 days): marked decrease
- mRNA levels of cholesterol uptake genes SR-BI and CD-36 ([12]; vs control adipocytes): marked decrease
- inhibition of cytochrome P450 (CYP450) (cytochrome P450 (CYP450)): known to inhibit

Compound: CCCCCCCCCCC(C)(C)C(=O)Nc1c(OC)cc(OC)cc1OC [CI-976, 2,2-Dimethyl-N-(2,4,6-trimethoxyphenyl) dodecanamide]
- anti-diabetes treatment [3]: highly effective
- anti-obesity treatment in a mouse model of obesity [3]: highly effective
- IC50 (ACAT2 [4]): < 1000 nM
- lipid accumulation (Oil Red O) ([6]; 0, 5, 15 and 20 μM for 6 days): decrease in lipid accumulation
